# Experimental data published in patent publication US20250375436A1, “SERDEXMETHYLPHENIDATE FOR TREATMENT OF IDIOPATHIC HYPERSOMNIA” (ZEVRA THERAPEUTICS, INC., priority 2024, published 2025).
# Assay: Plasma PK of d-MPH after single oral dose administrations of 240, 360 and 480 mg SDX Cl
structure (smiles),measurement,setting,value
"COC(=O)[C@H](c1ccccc1)[C@H]1CCCCN1C(=O)OC[n+]1cccc(C(=O)N[C@@H](CO)C(=O)O)c1.[Cl-] [SDX Cl, 3-[[[(1S)-1-carboxy-2-hydroxyethyl]amino]carbonyl]-1-[[[[(2R)-2-[(1R)-2-methoxy-2-oxo-1-phenylethyl]-1-piperidinyl]carbonyl]oxy]methyl]pyridinium chloride]",CL/F,"single oral dose 240 mg SDX Cl, N = 14",384 L/h
same,CL/F,"single oral dose 360 mg SDX Cl, N = 10",387 L/h
same,CL/F,"single oral dose 480 mg SDX Cl, N = 7",297 L/h
